Reference: ChEMBL document CHEMBL1201862, “PubChem BioAssay data set” (2004)
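Assay format: 96-well plates, 48-hour exposure. GI50 marks 50% less growth.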 Activity calls are given as the source filed them. Cut-off read from the data, not from the text of the source: active = GI50 up to about 1.1 µM and inactive = higher.

Assays:
Test in all cases: growth of human tumour cells (NCI), 48 h
BT-549 = tested on: BT-549
COLO 205 = tested on: COLO 205
HCC 2998 = tested on: HCC 2998
HCT-116 = tested on: HCT-116
HOP-92 = tested on: HOP-92
IGROV-1 = tested on: IGROV-1
KM12 = tested on: KM12
M14 = tested on: M14
MCF7 = tested on: MCF7
MDA-MB-231 = tested on: MDA-MB-231
Malme-3M = tested on: Malme-3M
NCI-H522 = tested on: NCI-H522
NCI/ADR-RES = tested on: NCI/ADR-RES
RPMI-8226 = tested on: RPMI-8226
SF-268 = tested on: SF-268
SN12C = tested on: SN12C
UO-31 = tested on: UO-31
DU-145 = tested on: DU-145
OVCAR-3 = tested on: OVCAR-3
SF-295 = tested on: SF-295

| Structure (SMILES) | GI50 (BT-549) | GI50 (COLO 205) | GI50 (HCC 2998) | GI50 (HCT-116) | GI50 (HOP-92) | GI50 (IGROV-1) | GI50 (KM12) | GI50 (M14) | GI50 (MCF7) | GI50 (MDA-MB-231) | GI50 (Malme-3M) | GI50 (NCI-H522) | GI50 (NCI/ADR-RES) | GI50 (RPMI-8226) | GI50 (SF-268) | GI50 (SN12C) | GI50 (UO-31) | GI50 (DU-145) | GI50 (OVCAR-3) | GI50 (SF-295) |
| --- | --- | --- | --- | --- | --- | --- | --- | --- | --- | --- | --- | --- | --- | --- | --- | --- | --- | --- | --- | --- |
| CC(C)C1(Cl)CCC2C3(C)CCCC(C)(C(=O)O)C3CC(Cl)C2(Cl)C1Cl (configuration not stated) | 48.8 µM (inactive) | 18 µM (inactive) | 27.4 µM (inactive) | 28.2 µM (inactive) | 37.4 µM (inactive) | 54.7 µM (inactive) | 18.2 µM (inactive) | 23.1 µM (inactive) | 30.5 µM (inactive) | 33.3 µM (inactive) | 25.5 µM (inactive) | 20 µM (inactive) | 32.5 µM (inactive) | 20.8 µM (inactive) | 45 µM (inactive) | 39.2 µM (inactive) | 32.1 µM (inactive) |  |  |  |
| C#CCNC(CCCNC(=N)N)C(=O)O (configuration not stated) | > 100 µM (inactive) | > 100 µM (inactive) | > 100 µM (inactive) | > 100 µM (inactive) | > 100 µM (inactive) | > 100 µM (inactive) | > 100 µM (inactive) | > 100 µM (inactive) |  | > 100 µM (inactive) | > 100 µM (inactive) | > 100 µM (inactive) | > 100 µM (inactive) | > 100 µM (inactive) | > 100 µM (inactive) |  | > 100 µM (inactive) | > 100 µM (inactive) | > 100 µM (inactive) | > 100 µM (inactive) |
| O=c1oc2ccc3ccccc3c2cc1-c1nc2ccccc2s1 | > 100 µM (inactive) | > 100 µM (inactive) | > 100 µM (inactive) | > 100 µM (inactive) | > 100 µM (inactive) | > 100 µM (inactive) | > 100 µM (inactive) | > 100 µM (inactive) |  | > 100 µM (inactive) | > 100 µM (inactive) | > 100 µM (inactive) | > 100 µM (inactive) |  | > 100 µM (inactive) | > 100 µM (inactive) | > 100 µM (inactive) | > 100 µM (inactive) | > 100 µM (inactive) | > 100 µM (inactive) |
| COc1ccc(C2SC(=N)Nc3c2c(C)nn3C(=O)c2ccccc2O)cc1OC (configuration not stated) | 8.91 µM (inactive) | > 10 µM (inactive) |  | 2.37 µM (inactive) | 1.08 µM (active) | 4.71 µM (inactive) | 6.55 µM (inactive) | 7.11 µM (inactive) | 3.3 µM (inactive) | 7.5 µM (inactive) | 6.3 µM (inactive) |  | 5.52 µM (inactive) | 6.28 µM (inactive) | 5.32 µM (inactive) | 5.98 µM (inactive) | 4.61 µM (inactive) | 4.3 µM (inactive) | > 10 µM (inactive) | 5.69 µM (inactive) |
| COC(=O)C1C(C(=O)OC)C2(OC(c3ccc(Cl)cc3)=CC2=O)C12OC(c1ccc(Cl)cc1)=CC2=O (configuration not stated) | 16.4 µM (inactive) | 16.7 µM (inactive) | 18.3 µM (inactive) | 14.9 µM (inactive) | 18.6 µM (inactive) | 17 µM (inactive) |  | 19.1 µM (inactive) | 18 µM (inactive) | 26.4 µM (inactive) | 17.3 µM (inactive) | 18.4 µM (inactive) |  | 7.21 µM (inactive) | 24.5 µM (inactive) | 20.5 µM (inactive) | 16.6 µM (inactive) | 29.9 µM (inactive) | 19.2 µM (inactive) | 22.6 µM (inactive) |
| Cc1c2cccc-2c2cc(O)c3ccccc3c2n1-c1ccc(N(C)C)cc1 | 10.7 µM (inactive) | 16.1 µM (inactive) | 13 µM (inactive) | 15.7 µM (inactive) | 2.51 µM (inactive) | 2.59 µM (inactive) | 6.82 µM (inactive) | 14.5 µM (inactive) | 0.395 µM (active) | 3.01 µM (inactive) | 15.6 µM (inactive) | 14.8 µM (inactive) | 14.6 µM (inactive) | 6.22 µM (inactive) | 15.9 µM (inactive) | 16.1 µM (inactive) | 11.5 µM (inactive) |  | 6.46 µM (inactive) | 10.1 µM (inactive) |
| Nc1nc(N)c2nc(CN(C=O)c3ccc(C(=O)O)cc3)cnc2n1 | > 26.6 µM (inactive) | > 100 µM (inactive) | > 100 µM (inactive) | 3.84 µM (inactive) | > 100 µM (inactive) | 44.5 µM (inactive) | 6.64 µM (inactive) | 7.43 µM (inactive) | 5.31 µM (inactive) | > 100 µM (inactive) | 8.18 µM (inactive) | 0.438 µM (active) |  | 14.7 µM (inactive) | 9.68 µM (inactive) | 52.6 µM (inactive) | > 22.3 µM (inactive) | 7.38 µM (inactive) | > 100 µM (inactive) | 17.1 µM (inactive) |
